This note sets out measurements from publication PMC12454493, “Insight on novel sulfamoylphenyl pyrazole derivatives as anticancer carbonic anhydrase inhibitors” (Molecular Diversity, 2024).

Values joined by “and” are separate entries in the source; they are usually repeats but may differ in a detail not shown here. Equal entries are not always repeated. A value given as a limit tells only on which side of the number the result lay.

For one data set, the system named is HL-60(TB). The data set can be described thus: NCI-60 one-dose SRB screen (Leukemia). The format is cell-based. The settings on record: Homo sapiens, single dose 10 µM, 48 h, read-out: Growth inhibition percent (GI %).
For a further data set, the system named is K-562. The data set is described as follows: NCI-60 one-dose SRB screen (Leukemia). The format is cell-based. The settings on record: Homo sapiens, K562, single dose 10 µM, 48 h, read-out: Growth inhibition percent (GI %).
The next data set deals with MOLT-4. The data set can be described thus: NCI-60 one-dose SRB screen (Leukemia). The conditions noted are these: Homo sapiens, single dose 10 µM, 48 h, read-out: Growth inhibition percent (GI %). It counts as cell-based.
Another data set has as its system RPMI-8226. The data set is described as follows: NCI-60 one-dose SRB screen (Leukemia). It counts as cell-based. The conditions noted are these: Homo sapiens, single dose 10 µM, 48 h, read-out: Growth inhibition percent (GI %).
Another data set relates to SR. The data set is described as follows: NCI-60 one-dose SRB screen (Leukemia). The format is cell-based. The conditions noted are these: Homo sapiens, single dose 10 µM, 48 h, read-out: Growth inhibition percent (GI %).
The subject of the next data set is IGROV1. The data set is described as follows: NCI-60 one-dose SRB screen (Ovarian cancer). It counts as cell-based. The settings on record: Homo sapiens, IGROV-1, single dose 10 µM, 48 h, read-out: Growth inhibition percent (GI %).
The test system of the next data set is OVCAR-3. The data set is described as follows: NCI-60 one-dose SRB screen (Ovarian cancer). The format is cell-based. The settings on record: Homo sapiens, single dose 10 µM, 48 h, read-out: Growth inhibition percent (GI %).
For the next data set, the system named is OVCAR-4. The data set can be described thus: NCI-60 one-dose SRB screen (Ovarian cancer). It counts as cell-based. The settings on record: Homo sapiens, single dose 10 µM, 48 h, read-out: Growth inhibition percent (GI %).
The subject of another data set is OVCAR-5. The data set can be described thus: NCI-60 one-dose SRB screen (Ovarian cancer). The settings on record: Homo sapiens, single dose 10 µM, 48 h, read-out: Growth inhibition percent (GI %). The format is cell-based.
A further data set relates to OVCAR-8. The data set is described as follows: NCI-60 one-dose SRB screen (Ovarian cancer). The conditions noted are these: Homo sapiens, single dose 10 µM, 48 h, read-out: Growth inhibition percent (GI %). The format is cell-based.
The next data set has as its system SK-OV-3. The data set is described as follows: NCI-60 one-dose SRB screen (Ovarian cancer). The conditions noted are these: Homo sapiens, single dose 10 µM, 48 h, read-out: Growth inhibition percent (GI %). It counts as cell-based.
The subject of another data set is DU-145. The data set can be described thus: NCI-60 one-dose SRB screen (Prostate Cancer). The settings on record: Homo sapiens, single dose 10 µM, 48 h, read-out: Growth inhibition percent (GI %). The format is cell-based.
A further data set concerns PC-3. The data set can be described thus: NCI-60 one-dose SRB screen (Prostate Cancer). The settings on record: Homo sapiens, single dose 10 µM, 48 h, read-out: Growth inhibition percent (GI %). The format is cell-based.
For another data set, the target named is hCA XII (Homo sapiens, UniProt O43570). The data set is described as follows: CA inhibitory activity, spectrophotometric p-NPA assay. The conditions noted are these: for IC50: p-NPA substrate, pH 7.5, 25 °C, triplicate, read-out: IC50 (µM) ± SD hCA XII. It counts as biochemical.
The next data set deals with NCI/ADR-RES. The data set is described as follows: NCI-60 one-dose SRB screen (Ovarian cancer). It counts as cell-based. The conditions noted are these: Homo sapiens, single dose 10 µM, 48 h, read-out: Growth inhibition percent (GI %).

hCA XII, sequence (O43570 25-354): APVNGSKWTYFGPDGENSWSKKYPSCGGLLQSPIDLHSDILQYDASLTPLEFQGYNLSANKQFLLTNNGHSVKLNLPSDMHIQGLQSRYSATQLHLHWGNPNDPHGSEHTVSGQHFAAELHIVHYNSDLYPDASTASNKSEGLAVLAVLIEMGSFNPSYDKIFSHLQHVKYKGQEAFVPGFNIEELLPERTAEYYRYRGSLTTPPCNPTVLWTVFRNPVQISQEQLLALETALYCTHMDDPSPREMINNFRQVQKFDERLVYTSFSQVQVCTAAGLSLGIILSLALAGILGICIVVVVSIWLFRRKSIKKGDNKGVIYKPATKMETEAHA
Protocol for hCA XII: The software used to calculate CA IC50 along with statistical analysis of the results is GraphPad Prism 9.00. Results were estimated by using one-way ANOVA and the Bonferroni’s multiple comparisons posthoc test was performed (P < 0.05) [46]
Carbonic anhydrase inhibitory activity:
The spectrophotometric assay was conducted in HEPES-Tris buffer, NaCl of pH 7.5 (20mM) at 25◦C. Each inhibitory well-consisted of 50 μL of assay buffer solution, 20 μL of hCA enzyme solution (20 ng/μL in Assay Buffer), and 50 μL of test compound in HPLC grade DMSO (maintain 10% of the final concentration). The mixture solution was
Substrate p-nitrophenyl acetate (p-NPA) (0.7mM) was prepared in HPLC grade methanol and the reaction was started by adding 20 μL to a well in a 96-well-plate. The amount of product formed was measured for 30 min continuously at 1 min intervals at 400 nm in a 96-well-plate using xMARK microplate spectrophotometer, Bio-Rad (USA). The activity of the controlled compound was taken as 100%. All experiments were carried out in triplicates of each used concentration, and results are represented as a

For `COc1ccc(-c2nn(-c3ccc(S(N)(=O)=O)cc3)cc2C(=O)OCC(=O)Nc2ccc(S(N)(=O)=O)cc2)cc1` [Compound 4c, 2-Oxo-2-[(4-sulfamoylphenyl)amino] ethyl 3-(4-methoxyphenyl)-1-(4-sulfamoylphenyl)-1H-pyrazole-4-carboxylate], the inhibition (as a rule, the change of the read-out against control, counted positive when it falls) at 10 µM was 13.9% with HL-60(TB); 9.61% with K-562; < 5% in the data set with MOLT-4; 9.19% in the data set on RPMI-8226; < 5% in the data set on SR; < 5% with IGROV1. Moreover, the inhibition at 10 µM with OVCAR-3, in the data set on OVCAR-4, in the data set on OVCAR-5, with OVCAR-8, with SK-OV-3 and with DU-145 was < 5% each time. Besides, the inhibition at 10 µM in the data set with PC-3 turned out to be 8.81%. In addition, on hCA XII, the IC50 (in general, the concentration that gives 50% inhibition) was 0.41 µM and 0.415 µM.

For `CS(=O)(=O)c1ccc(-c2nn(-c3ccc(S(N)(=O)=O)cc3)cc2C(=O)NNC(N)=S)cc1` [Compound 9e, 2-[3-(4-(Methylsulfonyl)phenyl)-1-(4-sulfamoylphenyl)-1H-pyrazole-4-carbonyl] hydrazine-1-carbothioamide], the melting point (commonly the temperature, or range, at which the solid turns liquid) was 261 to 262 °C. In the data set with HL-60(TB), the inhibition at 10 µM was < 5%. For the same molecule, the inhibition at 10 µM with K-562 is < 5%. In addition, in the data set on MOLT-4, the inhibition at 10 µM was < 5%. For the same molecule, the inhibition at 10 µM with RPMI-8226 is < 5%. The inhibition at 10 µM in the data set on SR is < 5%. The inhibition at 10 µM in the data set with IGROV1 is < 5%. Moreover, the inhibition at 10 µM in the data set with NCI/ADR-RES was < 5%. In the data set on OVCAR-3, the inhibition at 10 µM was < 5%. Also, the inhibition at 10 µM with OVCAR-4 is < 5%. Moreover, the inhibition at 10 µM with OVCAR-5 is < 5%. Besides, in the data set on OVCAR-8, the inhibition at 10 µM was < 5%. Moreover, in the data set with SK-OV-3, the inhibition at 10 µM was < 5%. Besides, the inhibition at 10 µM in the data set with DU-145 is < 5%. For the same molecule, in the data set on PC-3, the inhibition at 10 µM is < 5%. The IC50 at hCA XII came to 0.929 ± 0.035 µM.

`CS(=O)(=O)c1ccc(-c2nn(-c3ccc(S(N)(=O)=O)cc3)cc2C(=O)OCC(=O)Nc2ccc(S(N)(=O)=O)cc2)cc1` [Compound 4e, 2-Oxo-2-[(4-sulfamoylphenyl)amino] ethyl 3-(4-(methylsulfonyl)phenyl)-1-(4-sulfamoylphenyl)-1H-pyrazole-4-carboxylate] yielded a melting point of 132 to 135 °C. Further, the inhibition at 10 µM with HL-60(TB) is < 5%. Moreover, in the data set with K-562, the inhibition at 10 µM is < 5%. In addition, the inhibition at 10 µM in the data set with MOLT-4 was < 5%. Also, in the data set on RPMI-8226, the inhibition at 10 µM was < 5%. The inhibition at 10 µM with SR was < 5%. The inhibition at 10 µM with IGROV1 was < 5%. The inhibition at 10 µM in the data set on NCI/ADR-RES was < 5%. The inhibition at 10 µM in the data set with OVCAR-3 is < 5%. In the data set on OVCAR-4, the inhibition at 10 µM is < 5%. The inhibition at 10 µM with OVCAR-5 was < 5%. In addition, in the data set on OVCAR-8, the inhibition at 10 µM is < 5%. The inhibition at 10 µM in the data set with SK-OV-3 is < 5%. Further, the inhibition at 10 µM in the data set on DU-145 was < 5%. Besides, the inhibition at 10 µM in the data set with PC-3 was < 5%. Besides, on hCA XII, the affinity, expressed as Ki, was 81 nM; the half-inhibitory concentration (IC50) is 0.08 µM and 0.081 µM.

`Cc1ccc(-c2nn(-c3ccc(S(N)(=O)=O)cc3)cc2C(=O)NNC(N)=S)cc1` [Compound 9b, 2-[1-(4-Sulfamoylphenyl)-3-(p-tolyl)-1H-pyrazole-4-carbonyl] hydrazine-1-carbothioamide] showed a melting point of 178 to 180 °C. Besides, the inhibition at 10 µM in the data set with HL-60(TB) is < 5%. Also, the inhibition at 10 µM in the data set on K-562 was < 5%. Further, in the data set with MOLT-4, the inhibition at 10 µM is < 5%. For the same molecule, the inhibition at 10 µM with RPMI-8226 was < 5%. In addition, the inhibition at 10 µM in the data set with SR is < 5%. In addition, the inhibition at 10 µM in the data set on IGROV1 was < 5%. Further, in the data set with NCI/ADR-RES, the inhibition at 10 µM is < 5%. Also, the inhibition at 10 µM in the data set with OVCAR-3 was < 5%. Moreover, in the data set with OVCAR-4, the inhibition at 10 µM was < 5%. Further, the inhibition at 10 µM with OVCAR-5 is < 5%. The inhibition at 10 µM with OVCAR-8 is < 5%. Further, the inhibition at 10 µM in the data set on SK-OV-3 is < 5%. Moreover, the inhibition at 10 µM in the data set with DU-145 was < 5%. Besides, in the data set with PC-3, the inhibition at 10 µM is < 5%. Also, on hCA XII, the IC50 is 0.33 µM and 0.335 µM.

`Cc1ccc(-c2nn(-c3ccc(S(N)(=O)=O)cc3)cc2-c2nnc(N)s2)cc1` [Compound 10, 4-[4-(5-Amino-1,3,4-thiadiazol-2-yl)-3-(p-tolyl)-1H-pyrazol-1-yl] benzenesulfonamide] returned a melting point of 230 to 234 °C. The inhibition at 10 µM in the data set with HL-60(TB) amounted to 9.66%. Besides, the inhibition at 10 µM in the data set on K-562 was determined as 11.1%. For the same molecule, the inhibition at 10 µM with MOLT-4 is < 5%. Besides, the inhibition at 10 µM in the data set on RPMI-8226 worked out at 10.2%. Also, in the data set with SR, the inhibition at 10 µM was < 5%. Moreover, the inhibition at 10 µM in the data set with IGROV1 is < 5%. Besides, in the data set on NCI/ADR-RES, the inhibition at 10 µM was < 5%. Moreover, the inhibition at 10 µM with OVCAR-3 is < 5%. The inhibition at 10 µM with OVCAR-4 is < 5%. Further, the inhibition at 10 µM in the data set on OVCAR-5 was < 5%. In addition, the inhibition at 10 µM in the data set on OVCAR-8 was < 5%. In addition, in the data set on SK-OV-3, the inhibition at 10 µM is < 5%. Also, in the data set with DU-145, the inhibition at 10 µM is < 5%. The inhibition at 10 µM with PC-3 stood at 8.5%. Moreover, the IC50 on hCA XII is 1.14 µM and 1.15 µM.

As to `Cc1ccc(-c2nn(-c3ccc(S(N)(=O)=O)cc3)cc2C(=O)OCC(=O)Nc2nnc(S(N)(=O)=O)s2)cc1` [Compound 6b, 2-Oxo-2-[(5-sulfamoyl-1,3,4-thiadiazol-2-yl)amino] ethyl 1-(4-sulfamoylphenyl)-3-(p-tolyl)-1H-pyrazole-4-carboxylate], the melting point was in the range of 115 to 120 °C. For the same molecule, the inhibition at 10 µM in the data set with HL-60(TB) is < 5%. The inhibition at 10 µM with K-562 is 16.7%. The inhibition at 10 µM in the data set on MOLT-4 turned out to be 7.13%. Besides, the inhibition at 10 µM in the data set on RPMI-8226 was < 5%. For the same molecule, the inhibition at 10 µM in the data set on SR was 15.7%. For the same molecule, in the data set with IGROV1, the inhibition at 10 µM was < 5%. Moreover, the inhibition at 10 µM in the data set with NCI/ADR-RES is < 5%. For the same molecule, the inhibition at 10 µM in the data set on OVCAR-3 was < 5%. The inhibition at 10 µM in the data set on OVCAR-4 was 16%. The inhibition at 10 µM in the data set with OVCAR-5 was < 5%. The inhibition at 10 µM in the data set on OVCAR-8 is < 5%. Also, in the data set on SK-OV-3, the inhibition at 10 µM was < 5%. Besides, the inhibition at 10 µM in the data set with DU-145 is < 5%. For the same molecule, the inhibition at 10 µM in the data set on PC-3 stood at 7.13%. Besides, the IC50 at hCA XII came out at 1.7 ± 0.064 µM.

In the case of `CCOC(=O)c1ccc(NC(=O)COC(=O)c2cn(-c3ccc(S(N)(=O)=O)cc3)nc2-c2ccc(Br)cc2)cc1` [Compound 5d, 2-[(4-(Ethoxycarbonyl)phenyl)amino]-2-oxoethyl 3-(4-bromophenyl)-1-(4-sulfamoylphenyl)-1H-pyrazole-4-carboxylate], the inhibition at 10 µM in the data set with HL-60(TB) is 89.4%; in the data set with K-562, 80.4%; in the data set on MOLT-4, 94%; in the data set with RPMI-8226, 80.3%; in the data set with SR, 80.1%; with IGROV1 it was 31.7%. Also, the inhibition at 10 µM in the data set with NCI/ADR-RES is 28.2%; in the data set on OVCAR-3, 62.6%; in the data set with OVCAR-4, 64%; in the data set with OVCAR-5 it was 38%; in the data set with OVCAR-8, 13.3%; in the data set with SK-OV-3, 29%. For the same molecule, the inhibition at 10 µM in the data set with DU-145 stood at 45.8%; in the data set with PC-3, 78.8%. For the same molecule, the IC50 on hCA XII came out at 0.99 ± 0.037 µM.
